Measured values reported in patent US20230225991A1, “COMPOUNDS FOR USE IN THE TREATMENT OF ACUTE INTERMITTENT PORPHYRIA” (VESTLANDETS INNOVASJONSSELSKAP AS, priority 2019, published 2023).
In brackets after ≈: the same amount, converted by molar mass. Values belong to the molecule of their own block, whether it stands above or below them.

Key:
HMBS [1] = target: T1, HMBS (Homo sapiens, UniProt P08397); test: Octet RED KD determination (Example 21); type: binding; set-up: Full-length HMBS was cloned into pET-28a(+)-TEV vector and transformed into BL21 (DE3) cells for expression; 6xHis (N, cleaved yes); TEV protease cleavage site (N, cleaved yes); made in house; host or cells: E. coli BL21 (DE3); settings: steady state analysis, 6.25 to 500 μM, PBS-P+ 5% DMSO
T1 sequence (P08397 1-361): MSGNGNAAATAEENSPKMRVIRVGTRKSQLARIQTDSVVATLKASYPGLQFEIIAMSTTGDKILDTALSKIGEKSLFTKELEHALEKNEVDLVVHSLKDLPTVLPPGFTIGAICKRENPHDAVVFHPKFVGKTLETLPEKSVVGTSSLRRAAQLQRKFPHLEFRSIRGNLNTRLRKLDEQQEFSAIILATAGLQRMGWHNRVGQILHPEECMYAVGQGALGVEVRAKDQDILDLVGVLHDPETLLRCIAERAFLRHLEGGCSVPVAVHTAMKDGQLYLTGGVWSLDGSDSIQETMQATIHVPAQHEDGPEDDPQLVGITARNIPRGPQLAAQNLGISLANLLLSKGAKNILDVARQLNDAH
Protocol: Octet RED (Forte Bio) was used for screening binding and determining the KD values of various compounds. OctetRED is based on the technique called Bio-layer interferometry (BLI). It measures changes in an interference pattern generated from visible light reflected from an optical layer and a biolayer containing proteins of interest. In the assay the target protein is biotinylated and coupled as a layer on the optic probe (Super Strepavidin). The concentration series was from 6.25 to 500 μM.
For the analysis method of KD determination, steady state analysis was used, where the response from steady state of the association phase was used for determining the binding curve for the analyte. Buffer for the analysis was selected to PBS-P+5% DMSO.

[2] = Solubility in DMSO and in buffer (Table 5); type: physicochemical; settings: for Soluble in DMSO (100%): 100% DMSO; for solubility: aqueous buffer, numeric values; for solubility / Solubility in buffer: buffer; for Solubility in buffer: stated in words
WT-HMBS [3] = target: T2, WT-HMBS (Homo sapiens, UniProt P08397); test: Octet RED96 KD determination (Example 22); type: binding; settings: PBS-P+ 5% DMSO; for Binding: Octet RED96, 3.1 to 150 μM; for Kd: Octet RED96, steady state, sigmoidal fitting, 3.1 to 150 μM
T2 construct: Full-length HMBS was cloned into pET-28a(+)-TEV vector and transformed into BL21 (DE3) cells for expression; 6xHis (N, cleaved yes); TEV protease cleavage site (N, cleaved yes); made in house; host or cells: E. coli BL21 (DE3)
T2 sequence (P08397 1-361): T1 sequence (P08397 1-361)
Protocol: Octet RED96 (Forte Bio) was used for screening binding and determining the KD values for certain compounds. In the assay the target protein (WT-HMBS) was biotinylated and coupled as a layer on the optic probe. The concentration series for the tested compounds were from 3.1 to 150 μM, dissolved in PBS-P+5% DMSO.
For the analysis method of KD determination, steady state analysis was used in which the response from steady-state of the association phase was used for determining the binding curve for the analyte. KD values were calculated using sigmoidal fitting. The buffer for the analysis was selected to PBS-P+5% DMSO.

WT-HMBS [4] = target: T2, WT-HMBS; test: Limited proteolysis by trypsin; type: biochemical; settings: Table 3; 84 μM compound, 2% DMSO
Protocol: Limited proteolysis by trypsin was performed at 37° C. in 20 mM HEPES, 150 mM NaCl, 2% DMSO, pH 8.2, with 0.15 μg/μl HMBS in the absence (DMSO-control) or presence of 84 μM compound and 2% DMSO. The proteolysis was initiated by adding 1 μg/ml TPCK-treated trypsin (Sigma-Aldrich). After 30 min, aliquots were removed and transferred to Laemmli loading buffer containing 2 μg/ml soybean trypsin inhibitor. Samples resolved by electrophoresis with 10% Mini-Protean® TGX™ gels (Bio-Rad Laboratories, Inc.) were analyzed using the Image Lab™ software (Bio-Rad Laboratories, Inc.). The unpaired t-test (two tailed) was performed using GraphPad Prism.
Limited tryptic proteolysis was also applied to compound BG-1. Proteolysis of WT-HMBS provided three major bands with relative content 34.5±0.3%, 14.7±0.8% and 50.9±0.5%, corresponding to remaining full-length HMBS (˜42.5 kDa), and two fragments of ˜41.0 kDa and ˜31.5 kDa, respectively (FIG. 1). […] The effect of this compound at 84 μM on the steady-state enzyme kinetics of HMBS was then calculated (Table 2).

WT-HMBS [5] = target: T2, WT-HMBS; test: DSF thermal upshift (ΔTm) of HMBS; type: binding; settings: Table 3, average compound concentration 122 μM (2% DMSO)
Protocol: Compounds BG-2, BG-3 and BG-4 were tested on recombinant WT-HMBS using DSF and tryptic proteolysis.

HMBS [6] = target: T1, HMBS; test: Activity measurements in vitro (Example 23, TECAN plate reader); type: biochemical; settings: 5 and 50 μM compound in 2.5% DMSO, 30 min at 37° C., compared to HMBS with DMSO only
Protocol: Activity measurements were carried out using TECAN plate reader for absorbance measurements. Activity measurements were based on measuring the light absorbance at 405 nm for determining the concentration of formed product, preuroporphyrinogen. Standard curve for measurements was measured using absorbance of known concentrations for Uroporphyrin I dihydrochloride, the cyclic derivative of preuroporphyrinogen. Two concentrations of the compound of Example 14, i.e. 5 and 50 μM in 2.5% DMSO were used. Protein was incubated 30 min in 37° C. with the compound, and mixed with MIX-buffer (50 mM HEPES pH 8, 2.5% DMSO) on Corning 96 well plate (clear bottom, half area, black). The solutions were pre-warmed to 37° C. prior to reaction. Reaction was started by adding PBG and after 5 min the reaction was stopped by adding the STOP solution (5 M HCl and 0.1% p-Benzoquinone mixed 1:1). Wells were covered and protected from light during the whole reaction.

KD (HMBS [1]): mM range (no saturation with 500 μM)
Compound: O=C(c1ccncc1)c1ccc(Cl)c([N+](=O)[O-])c1

Kd (HMBS [1]): 7 µM
Compound: Cc1ccc(C(=O)c2ccc(Cl)cc2)cc1[N+](=O)[O-]

KD (HMBS [1]): mM range (no saturation with 500 μM)
Compound: O=C(c1ccc(Br)cc1)c1ccc(Cl)c([N+](=O)[O-])c1

Kd (HMBS [1]): 300 µM
Compound: COc1ccc(C(=O)c2ccc(Cl)c([N+](=O)[O-])c2)cc1

KD (HMBS [1]): mM range (no saturation with 500 μM)
Compound: O=C(c1ccc(Cl)c([N+](=O)[O-])c1)c1ccc(Cl)c([N+](=O)[O-])c1

Kd (HMBS [1]): 140 µM
Compound: O=C(c1ccc(Cl)c(Cl)c1)c1ccc(Cl)c([N+](=O)[O-])c1

Kd (HMBS [1]): > 200 µM
Compound: O=C(c1ccc(OCCN2CCCC2)cc1)c1ccc(N2CCCC2)c([N+](=O)[O-])c1

KD (HMBS [1]): mM range (no
Compound: O=C(c1ccccc1)c1ccc(Cl)c([N+](=O)[O-])c1 [drawing 44]

More lines, now with the values behind:

Compound: CN(C(=O)c1ccc(Cl)c([N+](=O)[O-])c1)c1ccccc1
KD (HMBS [1]): mM range (no saturation with 500 μM)

Compound: Cc1cccc(C)c1C(=O)c1ccc(Cl)c([N+](=O)[O-])c1
KD (HMBS [1]): mM range (no saturation with 500 μM)

Compound: O=C(c1ccc(Cl)cc1)c1cc([N+](=O)[O-])ccc1Cl
Kd (HMBS [1]): 110 µM

Compound: COc1ccc(C(O)c2ccc(Cl)c([N+](=O)[O-])c2)cc1 (stereo not drawn)
Kd (HMBS [1]): > 200 µM

Compound: O=Cc1cc(Cc2ccccc2Cl)ccc1O
Kd (HMBS [1]): 190 µM

Compound: O=C(c1ccc(OC(F)(F)F)cc1)c1ccc(Cl)c(C(F)(F)F)c1
Soluble in DMSO (100%) [2]: Yes
solubility [2]: 52 µM (≈ 19.2 µg/mL)

Compound: O=Cc1cc(Cc2ccccc2Cl)cc(C(F)(F)F)c1O
Soluble in DMSO (100%) [2]: Yes
Solubility in buffer [2]: Yes
Binding (WT-HMBS [3]): Yes
Kd (WT-HMBS [3]): 9.3 µM

Compound: O=Cc1cc(Cc2ccccc2)cc([N+](=O)[O-])c1O [BG-3]
Protection against tryptic proteolysis (WT-HMBS [4]): +/− (+/−, ±2%)
ΔTm at 122 µM (WT-HMBS [5]): 6.6 °C

Compound: O=[N+]([O-])c1cc(Cc2ccccc2Cl)cc(CO)c1O [BG-4]
Protection against tryptic proteolysis (WT-HMBS [4]): +/− (+/−, ±2%)
ΔTm at 122 µM (WT-HMBS [5]): 4.7 °C

Compound: OCc1cc(Cc2ccccc2Cl)cc(C(F)(F)F)c1O [Example 14, 4-(2-chlorobenzyl)-2-(hydroxymethyl)-6-(trifluoromethyl) phenol]
HMBS activity in presence of compound (HMBS [6]): activation of HMBS

Compound: O=Cc1cc(Cc2ccccc2Cl)cc([N+](=O)[O-])c1O [drawing 43]
Kd (HMBS [1]): 90 µM

Compound: O=Cc1cc(Cc2ccccc2Cl)cc([N+](=O)[O-])c1O [drawing 59]
Soluble in DMSO (100%) [2]: Yes
solubility [2]: 384 µM (≈ 112 µg/mL)
Binding (WT-HMBS [3]): Yes
Kd (WT-HMBS [3]): 83 µM

Compound: OCc1cc(Cc2ccccc2Cl)cc(C(F)(F)F)c1O [drawing 62]
Soluble in DMSO (100%) [2]: Yes
Solubility in buffer [2]: Yes
Binding (WT-HMBS [3]): Yes
Kd (WT-HMBS [3]): 90 µM
